Measurements published in patent publication US20080096884A1, “4-Aminoquinoline-3-Carboxamide Derivatives as Pde4 Inhibitors” (priority 2003, published 2008).

Legend:
PDE5 (human recombinant) = PDE5 (human recombinant) (Homo sapiens, UniProt O76074); assay: Inhibition of PDE5 catalytic activity (SPA); type: biochemical; conditions: read-out: PDE5 mean pIC50 (converted)
Text: Human recombinant PDE5 is disclosed in K. Loughney et al., “Isolation and characterisation of cDNAs encoding PDE5A, a human cGMP-binding, cGMP-specific 3′,5′-cyclic nucleotide phosphodiesterase”, Gene, 1998, 216, 139-147.
The ability of compounds to inhibit catalytic activity at PDE4B or 4D (human recombinant), PDE3 (from bovine aorta) PDE5 (human recombinant) or PDE 6 (from bovine retina) may be determined by Scintillation Proximity Assay (SPA) in 96-well format. Test compounds (preferably as a solution in DMSO, e.g. 2 microlitre (μl) volume) were preincubated at ambient temperature in Wallac Isoplates (code 1450-514) with PDE enzyme in 50 mM Tris-HCl buffer pH 7.5, 8.3 mM MgCl2, 1.7 mM EGTA, 0.05% (w/v) bovine serum albumin for 10-30 minutes. The enzyme concentration was adjusted so that control rates are linear over the asay incubation period. […] Bound radioactive product was measured using a WALLAC TRILUX 1450 MicroBeta scintillation counter. […] Curves were analysed using ActivityBase and XLfit (ID Businesss Solutions Limited, 2 Ocean Court, Surrey Research Park, Guildford, Surrey GU2 7QB, United Kindgom). Results were expressed as pIC50 values.

[1] = target: T1, PDE4B (human recombinant) (Homo sapiens, UniProt Q07343); assay: Inhibition of PDE4B catalytic activity (SPA or IMAP FP assay); type: biochemical; conditions: SPA or FP assay not specified, read-out: PDE4B mean pIC50 (converted)
T1 construct: made in house; host or cells: Saccharomyces cerevisiae strain GL62 (as described in the cited WO 94/20079)
T1 sequence (Q07343 1-564 isoform Q07343-2): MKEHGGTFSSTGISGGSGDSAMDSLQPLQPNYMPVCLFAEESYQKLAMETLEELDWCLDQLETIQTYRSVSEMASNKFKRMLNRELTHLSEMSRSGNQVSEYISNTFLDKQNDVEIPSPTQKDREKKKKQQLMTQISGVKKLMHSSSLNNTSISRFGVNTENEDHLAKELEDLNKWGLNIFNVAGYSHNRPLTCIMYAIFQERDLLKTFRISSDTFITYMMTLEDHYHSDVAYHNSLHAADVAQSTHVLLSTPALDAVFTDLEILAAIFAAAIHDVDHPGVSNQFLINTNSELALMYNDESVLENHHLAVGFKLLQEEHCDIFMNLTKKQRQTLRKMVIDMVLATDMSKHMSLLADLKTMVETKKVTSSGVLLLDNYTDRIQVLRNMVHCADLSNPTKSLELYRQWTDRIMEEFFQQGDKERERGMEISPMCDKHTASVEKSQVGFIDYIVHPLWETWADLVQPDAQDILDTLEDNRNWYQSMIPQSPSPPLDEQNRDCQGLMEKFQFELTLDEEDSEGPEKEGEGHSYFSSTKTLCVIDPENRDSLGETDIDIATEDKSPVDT
Text: Human recombinant PDE4B, in particular the 2B splice variant thereof (HSPDE4B2B), is disclosed in WO 94/20079 and also in M. M. McLaughlin et al., “A low Km, rolipram-sensitive, cAMP-specific phosphodiesterase from human brain: cloning and expression of cDNA, biochemical characterisation of recombinant protein, and tissue distribution of mRNA”, J. Biol. Chem., 1993, 268, 6470-6476. […]
The ability of compounds to inhibit catalytic activity at PDE4B or 4D (human recombinant), PDE3 (from bovine aorta) PDE5 (human recombinant) or PDE 6 (from bovine retina) may be determined by Scintillation Proximity Assay (SPA) in 96-well format. […] Bound radioactive product was measured using a WALLAC TRILUX 1450 MicroBeta scintillation counter. […] Curves were analysed using ActivityBase and XLfit (ID Businesss Solutions Limited, 2 Ocean Court, Surrey Research Park, Guildford, Surrey GU2 7QB, United Kindgom). Results were expressed as pIC50 values.
The ability of compounds to inhibit catalytic activity at PDE4B (human recombinant) and PDE4D (human recombinant) was determined by IMAP Fluorescence Polarisation (FP) assay (Molecular Devices Ltd code: R8062) in 384-well format. […]
Fluorescein adenosine 3′,5′-cyclic phosphate (Molecular Devices Ltd code: R7091) was added to give ˜40 nM final concentration. […] Curves were analysed using ActivityBase and XLfit (ID Businesss Solutions Limited). […]

Row | SMILES | IC50 (PDE5 (human recombinant)) [µM] | IC50 [1] [µM]
1 | COc1cccc(Nc2c(C(N)=O)cnc3ccc(S(=O)(=O)N(C)C)cc23)c1 [Example 2, 6-[(dimethylamino)sulfonyl]4-{[3-(methyloxy)phenyl]amino}-3-quinolinecarboxamide] | 15.8 | 0.001
2 | NC(=O)c1cnc2ccc(S(=O)(=O)N3CCOCC3)cc2c1Nc1cccc(Cl)c1 [Example 4] | 12.6 | 0.00251
